Patent US10822319B2, “Crystal of DPP-IV long-acting inhibitor and salt” (priority 2016, dated 2020)
Read-outs that look alike come from different tables or passages of the source.

Experiments:
[1] = Stability test of the crystal of the compound represented by Formula I; assay type: physicochemical
Source text: Samples were taken on day 5 or day 10 and tested, respectively, and the results were compared with the initial results.

[2] = Pharmacokinetics in Beagle dogs; assay type: in vivo; conditions: plasma, 2 mg/kg (in free form); for MRT last: read-out: MRT(0−t); for bioavailability: relative to the compound represented by Formula I, read-out: Relative F %
Method: Male Beagle dogs were fasted for about 12 h prior to administration and had free access to water. The dogs were also fasted for 4 hours after administration. Blood samples (0.8 mL) were taken from the forelimb vein of the subject Beagle dogs at 0.25, 0.5, 1, 2, 4, 6, 8, 10, 24, 30, 48, and 72 h after administration. The samples were then placed in EDTA-K2 centrifuge tubes, stored at 4° C., and centrifuged for 10 min at a speed of 4000 rpm at 4° C. within 0.5 h after blood collection to separate plasma. The plasma was stored at […] within 1 h after collecting all the plasma.
300 μL of a solution of an internal standard substance in methanol was added to 50 μL of the plasma sample to be tested and a standard curve sample, respectively. The resulting mixture was mixed uniformly by shaking for 5 min, and centrifuged for 10 min at a speed of 13000 rpm. Then 80 μL of supernatant was taken, and 5 μL of the supernatant was pipetted for LC/MS/MS determination, and the chromatogram was recorded.

[3] = High Humidity (RH92.5%, 25° C.), Day 5
[4] = High Humidity (RH92.5%, 25° C.), Day 10
[5] = Light Irradiation (6000 lux), Day 5
[6] = Light Irradiation (6000 lux), Day 10
[7] = male, Beagle, dog, oral, 2 mg/kg, crystalline form
[8] = male Beagle dogs, crystalline form
[9] = male, Beagle, dog, po, 2 mg/kg, crystalline form

With `CS(=O)(=O)c1ccc2c(c1)CN([C@H]1CO[C@H](c3cc(F)ccc3F)[C@@H](N)C1)C2` [(2R,3S,5R)-5-(5-methanesulfonylisoindolin-2-yl)-2-(2,5-difluorophenyl)tetrahydro-2H-pyran-3-amine] the “Content (%)” value ([1]; 40° C., Day 5) was 99.6%, the “Total impurity (%)” value ([1]; 40° C., Day 5) was 0.31% and the “Content (%)” value ([1]; 40° C., Day 10) was 99.6%. For the same compound, the “Total impurity (%)” value ([1]; 40° C., Day 10) was 0.37%, the “Content (%)” value ([1]; 60° C., Day 5) was 100.2% and the “Total impurity (%)” value ([1]; 60° C., Day 5) was 0.30%. The “Content (%)” value ([1]; 60° C., Day 10) was 99.4%, the “Total impurity (%)” value ([1]; 60° C., Day 10) was 0.33% and the “Content (%)” value ([1]; Day 0) was 99.1%. The “Total impurity (%)” value ([1]; Day 0) was 0.39%, the “Content (%)” value [1, 3] was 100.3% and the “Total impurity (%)” value [1, 3] was 0.27%. The “Content (%)” value [1, 4] was 99.9%, the “Total impurity (%)” value [1, 4] was 0.32% and the “Content (%)” value [1, 5] was 99.5%. For the same compound, the “Total impurity (%)” value [1, 5] was 0.33%, the “Content (%)” value [1, 6] was 99.3% and the “Total impurity (%)” value [1, 6] was 0.44%. The Appearance ([1]; all conditions and days (Day 0, 40° C., 60° C., high humidity, light irradiation)) was “Off-white powdered solid”.

Compound `CS(=O)(=O)c1ccc2c(c1)CN([C@H]1CO[C@H](c3cc(F)ccc3F)[C@@H](N)C1)C2` [fumarate of (2R,3S,5R)-5-(5-methanesulfonylisoindolin-2-yl)-2-(2,5-difluorophenyl)tetrahydro-2H-pyran-3-amine] has an AUC(0-inf) [2, 7] of 20300 ng·h/mL, an AUC(0-t) [2, 7] of 19500 ng·h/mL and a half-life [2, 7] of 16.6 h. It also gave a Cmax ([2]; male, Beagle, dog, oral, 2 mg/kg, crystalline form, read-out: Cmax) of 1220 ng/mL, an MRT last [2, 7] of 20.3 h and a Tmax ([2]; male, Beagle, dog, oral, 2 mg/kg, crystalline form, read-out: Tmax) of 0.75 h. For the same compound, the bioavailability ([2]; male, Beagle, dog, oral, 2 mg/kg) was 152%.

With `CS(=O)(=O)c1ccc2c(c1)CN([C@H]1CO[C@H](c3cc(F)ccc3F)[C@@H](N)C1)C2` [The phosphate of the compound represented by Formula I] [Phosphate of (2R,3S,5R)-5-(5-methanesulfonylisoindolin-2-yl)-2-(2,5-difluorophenyl)tetrahydro-2H-pyran-3-amine] the “AUC(0−t)” value [2, 8] was 22746 ng·h/mL, the “AUC(0−∞)” value [2, 8] was 23508 ng·h/mL and the “Cmax” value [2, 8] was 1746 ng/mL. For the same compound, the “MRT(0−t)” value [2, 8] was 17.9 h, the “Tmax” value [2, 8] was 0.67 h and the “t1/2” value [2, 8] was 16.9 h.

`CS(=O)(=O)c1ccc2c(c1)CN([C@H]1CO[C@H](c3cc(F)ccc3F)[C@@H](N)C1)C2` [The compound represented by Formula I, (2R,3S,5R)-5-(5-methanesulfonylisoindolin-2-yl)-2-(2,5-difluorophenyl)tetrahydro-2H-pyran-3-amine] showed an AUC(0-inf) [2, 9] of 15800 ng·h/mL, an AUC(0-t) [2, 9] of 15200 ng·h/mL and a half-life [2, 9] of 16.4 h. The Cmax ([2]; male, Beagle, dog, po, 2 mg/kg, crystalline form, read-out: Cmax) was 926 ng/mL, the MRT last [2, 9] was 20.6 h and the Tmax ([2]; male, Beagle, dog, po, 2 mg/kg, crystalline form, read-out: Tmax) was 6 h. For the same compound, the bioavailability ([2]; male, Beagle, dog, po, 2 mg/kg) was 100%.
